A short description of data set [1]: Selectivity index, ratio of IC50 for human WI38 cells to IC50 for chloroquine-sensitive Plasmodium falciparum 3D7. The class given is toxicity, cell-based, WI-38. Conditions: read-out: Ratio IC50.
Data set [2] has as its system WI-38. Kind of data set: Cytotoxicity against human WI38 cells assessed as cell viability by WST-1 assay. The class given is cell-based. For orientation: Tetrazolium assays rely on reduction of a dye to a coloured formazan, in cell work by metabolically active cells.
Data set [3] deals with Plasmodium falciparum. Kind of data set: Antiplasmodial activity against chloroquine-sensitive Plasmodium falciparum 3D7 assessed as growth inhibition by lactate dehydrogenase assay. The class given is functional, organism-based.

Converted amounts (≈) assume the structure as drawn. Bounds are passed on as bounds.

Usually IC50 stands for the point on the concentration scale where inhibition reaches its midpoint. What is called IC90 is the point of the concentration-response curve where the effect stands at 90%. As for `C/C=C1/CN2[C@@H](C3=C[C@@H]4[C@@H]5N(C3=O)c3ccccc3[C@@]53CCN5C/C(=C/C)[C@@H]4C[C@H]53)C[C@@]34c5ccccc5N5C6=C7[C@H]8C[C@@H]9N(CC[C@@]9%10c9ccccc9N(C6=C([C@H]1C[C@H]23)[C@H]54)[C@@H]7%10)C/C8=C/C`, in data set [1], the selectivity ratio was below 10.1. Moreover, the IC50 in data set [2] was below 5 µg/mL. Also, in data set [3], the IC50 was 600 nM and the IC90 came to 1.6 µg/mL (≈ 1.85 µM).

Take `CC[C@@]1(O)C(=O)OCc2c1cc1n(c2=O)Cc2cc3ccccc3nc2-1` [CAMPTOTHECIN]: the half-inhibitory concentration (IC50) in data set [2] was 0.03 µg/mL (≈ 0.0861 µM).

In the case of `C/C=C1/CN2CC[C@]34c5ccccc5N5C(=O)[C@H]6[C@@H](O)[C@H]7[C@@H]8N(c9ccccc9[C@@]89CCN8C/C(=C/C)[C@@H]7C[C@H]89)[C@@H]6[C@H]([C@H]53)[C@H]1C[C@H]24`, the selectivity ratio in data set [1] is above 14. For the same compound, the half-inhibitory concentration (IC50) in data set [2] is above 10 µg/mL; in data set [3], 1100 nM. For the same compound, the concentration for an effect of 90% (IC90) in data set [3] came to 2.6 µg/mL (≈ 4.24 µM).

As to `C[C@@H]1CC[C@H]2[C@@H](C)C(=O)O[C@@H]3O[C@@]4(C)CC[C@@H]1[C@]32OO4` [ARTEMISININ], the IC50 in data set [3] is 0.01 µg/mL.
